Measurements reported in US20250320246A1, “3-AZASTEROID COMPOUNDS FOR THE TREATMENT OF DISEASES RELATED TO MITROCHONDRIAL FUNCTION” (NZP UK LIMITED, priority 2022, published 2025).

Tests used:
Type in all cases: cell-based, human
[1] = test system: iNeurons from sPD patients; experiment: Neuronal morphology (elongation) in iNeurons from sPD patients
Method: (§1) The fibroblasts lines and iNPC lines have previously been characterised and published in Carling et al, 2020.
(§2) Briefly, iNPCs are plated in a 6-well plate and cultured for 2 days in DMEM/F-12 medium with Glutamax™ supplemented with 1% NEAA, 2% B27 (Gibco) and 2.5 μM of DAPT. On day 3, DAPT is removed and the medium is supplemented with 1 μM smoothened agonist (SAG) and FGF8 (75 ng/ml) for additional 10 days. Neurons are replated at this stage. Subsequently SAG and FGF8 are withdrawn and replaced with BDNF (30 ng/ml), GDNF (30 ng/ml), TGF-b3 ([…]) and dcAMP (2 mM, Sigma) for 15 days, as previously described Schwartzentruber et al, 2020 and Carling et al, 2020. Dopaminergic neurons were treated with compounds at concentrations of 0.1 nM, 1 nM, 3 nM, 10 nM, 30 nM and 100 nM dosing every 3 days for the last 12 days of differentiation.
Cells are plated into 96 well plates and fixed using 4% paraformaldehyde for 30 minutes. After PBS washes cells are permeabilised using 0.1% Triton™ X-100 for 10 minutes and blocked using 5% goat serum for 1 hour. Cells are incubated with primary antibodies βIII tubulin (Millipore); activated caspase 3 (Cell Signaling); at 4° C. for 16 hours. Cells are washed using PBS-Tween® and incubated with Alexa Fluor™-conjugated secondary antibodies 488 and 568 (Invitrogen) and Hoescht (Sigma) 1 μM prior to imaging. Imaging was performed using the Opera Phenix™ high content imaging system (Perkin Elmer).
iNeurons were treated every 3 days for the last 12 days of the differentiation protocol. […] Mitochondrial reactive oxygen species generation was assessed using mitochondrial NpFR2 (probe; a kind gift from Dr Liz New, University of Sydney, Australia) at 20 μM and Hoechst stain solution at 1 μM for 30 mins at 37° C., then the dyes are removed and cells images using Opera Phenix™. Images generated from the live imaging experiments were analysed using Harmony® (Perkin Elmer software). […] We only analysed the z projection images collected from the z stacks.

[2] = test system: iNeurons from sPD patients; experiment: Cellular ATP in iNeurons (dopaminergic neurons derived from sPD patients)
Method: as §1, §2
(§3) iNeurons were treated every 3 days for the last 12 days of the differentiation protocol. Cells are plated in 96 well plates; for live imaging cells are incubated for one hour at 37° C. with 80 nM tetramethlyrhodamine (TMRM), 1 μM LysoTracker® Green (Invitrogen) and Hoechst Stain solution (Sigma) at 1 μM before imaging using Opera Phenix™. Cellular ATP measurements are undertaken using ATPlite kit (Perkin Elmer) as per manufacturer's instructions. Mitochondrial reactive oxygen species generation was assessed using mitochondrial NpFR2 (probe; a kind gift from Dr Liz New, University of Sydney, Australia) at 20 μM and Hoechst stain solution at 1 μM for 30 mins at 37° C., then the dyes are removed and cells images using Opera Phenix™. Images generated from the live imaging experiments were analysed using Harmony® (Perkin Elmer software). We developed protocols in order to segment nucleus, cell boundary and processes, mitochondria, lysosomes, autophagosomes. We only analysed the z projection images collected from the z stacks.

[3] = test system: sporadic PD patient fibroblasts; experiment: Cellular ATP levels in sporadic PD patient fibroblasts, full ATP assay; details: Homo sapiens, Fibroblast, 24 h, 3 sporadic PD patient fibroblasts
[4] = test system: iNeurons from sPD patients; experiment: Mitochondrial membrane potential (MMP) in iNeurons from sPD patients
Method: as §1, §2, §3

C[C@H](CCCC(=O)O)[C@H]1CC[C@H]2[C@@H]3[C@@H](O)C[C@@H]4CNCC[C@]4(C)[C@H]3CC[C@]12C.Cl [Compound 28b, 3-Aza-7β-hydroxy-25-homo-5β-cholan-25-oic acid hydrochloride]
neuronal morphology, in words ([1]; sPD derived dopaminergic neurons): improving neuronal morphology
Neuronal morphology (elongation; % controls) ([1]; sPD patient iNeurons treated, untreated sPD patients 48): 68 % controls
EC50 ([2]; Homo sapiens, Neuron, sPD patient iNeurons, dosing every 3 days for last 12 days of differentiation): 5 nM
effect on mitochondrial parameters in sPD derived dopaminergic neurons ([2]; both mitochondrial parameters (Table 3)): provides a protective effect on both mitochondrial parameters
ATP normalisation (% of controls) ([2]; sPD patient iNeurons treated, untreated sPD patients 50): 94.3 % of controls
EC50 ([3]; 8-point range 0.06 nM-300 nM): 32.9 nM
Emax at 0.3 µM ([3]; max response with highest dose of compound (300 nM), read-out: ATP % of vehicle, top %): 138%
activity at 60 pM ([3]; max response with lowest dose of compound (0.06 nM), read-out: ATP % of vehicle, bottom %): 94.6%
EC50 ([4]; Homo sapiens, sPD patient iNeurons, dosing every 3 days for last 12 days of differentiation): 8.2 nM
MMP normalisation (% of controls) ([4]; sPD patient iNeurons treated, untreated sPD patients 52): 76 % of controls
